Source: PubChem BioAssay (NCI)
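Protocol summary: plate cells (96-well), add compound at 5 concentrations, incubate 48 h, interpolate endpoints linearly. The concentration for full growth arrest is given as TGI.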

Assays:
Assay in all cases: NCI-60 cell line screen, 48 h
A549 NSCLC = tested on: A549 NSCLC
LOX IMVI melanoma = tested on: LOX IMVI melanoma
HOP-62 NSCLC = tested on: HOP-62 NSCLC
SNB-75 CNS = tested on: SNB-75 CNS
KM12 colon = tested on: KM12 colon
SF-268 CNS = tested on: SF-268 CNS
XF 498 CNS = tested on: XF 498 CNS
HCC-2998 colon = tested on: HCC-2998 colon
UO-31 renal = tested on: UO-31 renal
786-0 renal = tested on: 786-0 renal
KM20L2 colon = tested on: KM20L2 colon
SNB-78 CNS = tested on: SNB-78 CNS
HOP-92 NSCLC = tested on: HOP-92 NSCLC
SK-MEL-28 melanoma = tested on: SK-MEL-28 melanoma
NCI-H460 lung = tested on: NCI-H460 lung
NCI-H23 lung = tested on: NCI-H23 lung
SK-MEL-2 melanoma = tested on: SK-MEL-2 melanoma
M14 melanoma = tested on: M14 melanoma
SK-OV-3 ovarian = tested on: SK-OV-3 ovarian
ACHN renal = tested on: ACHN renal
CCRF-CEM leukemia = tested on: CCRF-CEM leukemia
SNB-19 CNS = tested on: SNB-19 CNS
LXFL 529 NSCLC = tested on: LXFL 529 NSCLC
SK-MEL-5 melanoma = tested on: SK-MEL-5 melanoma
SN12C renal = tested on: SN12C renal
UACC-257 melanoma = tested on: UACC-257 melanoma
OVCAR-5 ovarian = tested on: OVCAR-5 ovarian
UACC-62 melanoma = tested on: UACC-62 melanoma
HCT-15 colon = tested on: HCT-15 colon
IGROV1 ovarian = tested on: IGROV1 ovarian
RXF 393 renal = tested on: RXF 393 renal
HL-60(TB) leukemia = tested on: HL-60(TB) leukemia
OVCAR-4 ovarian = tested on: OVCAR-4 ovarian
MALME-3M melanoma = tested on: MALME-3M melanoma
RPMI-8226 leukemia = tested on: RPMI-8226 leukemia
EKVX NSCLC = tested on: EKVX NSCLC
DLD-1 colon = tested on: DLD-1 colon
SW-620 colon = tested on: SW-620 colon
TK-10 renal = tested on: TK-10 renal
CAKI-1 renal = tested on: CAKI-1 renal
OVCAR-3 ovarian = tested on: OVCAR-3 ovarian
MOLT-4 leukemia = tested on: MOLT-4 leukemia
K-562 leukemia = tested on: K-562 leukemia
DMS 273 small cell lung = tested on: DMS 273 small cell lung
SF-295 CNS = tested on: SF-295 CNS
DMS 114 small cell lung = tested on: DMS 114 small cell lung
COLO 205 colon = tested on: COLO 205 colon
OVCAR-8 ovarian = tested on: OVCAR-8 ovarian
NCI-H522 lung = tested on: NCI-H522 lung
HCT-116 colon = tested on: HCT-116 colon
HT29 colon = tested on: HT29 colon
A498 renal = tested on: A498 renal
SR leukemia = tested on: SR leukemia
M19-MEL melanoma = tested on: M19-MEL melanoma
U251 CNS = tested on: U251 CNS
NCI-H226 lung = tested on: NCI-H226 lung

CC(=O)Nc1c(Nc2ccccc2)[nH]c(C)nc1=S
TGI (A549 NSCLC): > 100 µM | TGI (LOX IMVI melanoma): > 100 µM | TGI (HOP-62 NSCLC): > 100 µM | TGI (SNB-75 CNS): > 100 µM | TGI (KM12 colon): > 100 µM | TGI (SF-268 CNS): > 100 µM | TGI (XF 498 CNS): > 100 µM | TGI (HCC-2998 colon): > 100 µM | TGI (UO-31 renal): > 100 µM | TGI (786-0 renal): > 100 µM | TGI (KM20L2 colon): > 100 µM | TGI (SNB-78 CNS): > 100 µM | TGI (HOP-92 NSCLC): > 100 µM | TGI (SK-MEL-28 melanoma): > 100 µM | TGI (NCI-H460 lung): > 100 µM | TGI (NCI-H23 lung): > 100 µM | TGI (SK-MEL-2 melanoma): > 100 µM | TGI (M14 melanoma): > 100 µM | TGI (SK-OV-3 ovarian): > 100 µM | TGI (ACHN renal): > 100 µM | TGI (CCRF-CEM leukemia): > 100 µM | TGI (SNB-19 CNS): > 100 µM | TGI (LXFL 529 NSCLC): > 100 µM | TGI (SK-MEL-5 melanoma): > 100 µM | TGI (SN12C renal): > 100 µM | TGI (UACC-257 melanoma): > 100 µM | TGI (OVCAR-5 ovarian): > 100 µM | TGI (UACC-62 melanoma): > 100 µM | TGI (HCT-15 colon): > 100 µM | TGI (IGROV1 ovarian): > 100 µM | TGI (RXF 393 renal): > 100 µM | TGI (HL-60(TB) leukemia): > 100 µM | TGI (OVCAR-4 ovarian): > 100 µM | TGI (MALME-3M melanoma): > 100 µM | TGI (RPMI-8226 leukemia): > 100 µM | TGI (EKVX NSCLC): > 100 µM | TGI (DLD-1 colon): > 100 µM | TGI (SW-620 colon): > 100 µM | TGI (TK-10 renal): > 100 µM | TGI (CAKI-1 renal): > 100 µM | TGI (OVCAR-3 ovarian): > 100 µM | TGI (MOLT-4 leukemia): > 100 µM | TGI (K-562 leukemia): > 100 µM | TGI (DMS 273 small cell lung): > 100 µM | TGI (SF-295 CNS): > 100 µM | TGI (DMS 114 small cell lung): > 100 µM | TGI (COLO 205 colon): > 100 µM | TGI (OVCAR-8 ovarian): > 100 µM | TGI (NCI-H522 lung): > 100 µM

CN(c1ccc(C(=O)c2ccc(N(C)S(C)(=O)=O)cc2)cc1)S(C)(=O)=O
TGI (A549 NSCLC): > 100 µM | TGI (HCT-116 colon): > 100 µM | TGI (SNB-75 CNS): > 100 µM | TGI (KM12 colon): > 100 µM | TGI (SF-268 CNS): > 100 µM | TGI (UO-31 renal): > 100 µM | TGI (786-0 renal): > 100 µM | TGI (KM20L2 colon): > 100 µM | TGI (SNB-78 CNS): > 100 µM | TGI (HOP-92 NSCLC): > 100 µM | TGI (SK-MEL-28 melanoma): > 100 µM | TGI (NCI-H460 lung): > 100 µM | TGI (NCI-H23 lung): > 100 µM | TGI (SK-MEL-2 melanoma): > 100 µM | TGI (HT29 colon): > 100 µM | TGI (SK-OV-3 ovarian): > 100 µM | TGI (ACHN renal): > 100 µM | TGI (CCRF-CEM leukemia): > 100 µM | TGI (SNB-19 CNS): > 100 µM | TGI (A498 renal): > 100 µM | TGI (LXFL 529 NSCLC): > 100 µM | TGI (SK-MEL-5 melanoma): 78.4 µM | TGI (SR leukemia): > 100 µM | TGI (SN12C renal): > 100 µM | TGI (UACC-257 melanoma): > 100 µM | TGI (OVCAR-5 ovarian): > 100 µM | TGI (UACC-62 melanoma): > 100 µM | TGI (HL-60(TB) leukemia): > 100 µM | TGI (OVCAR-4 ovarian): > 100 µM | TGI (MALME-3M melanoma): > 100 µM | TGI (RPMI-8226 leukemia): > 100 µM | TGI (EKVX NSCLC): > 100 µM | TGI (DLD-1 colon): > 100 µM | TGI (SW-620 colon): > 100 µM | TGI (TK-10 renal): > 100 µM | TGI (CAKI-1 renal): > 100 µM | TGI (MOLT-4 leukemia): > 100 µM | TGI (K-562 leukemia): > 100 µM | TGI (SF-295 CNS): > 100 µM | TGI (M19-MEL melanoma): > 100 µM | TGI (U251 CNS): > 100 µM | TGI (DMS 114 small cell lung): 61.1 µM | TGI (COLO 205 colon): > 100 µM | TGI (NCI-H226 lung): > 100 µM | TGI (OVCAR-8 ovarian): > 100 µM | TGI (NCI-H522 lung): > 100 µM
